Test results published in US9790178B2, “Pyrrolidinyl urea, thiourea, guanidine and cyanoguanidine compounds as TrkA kinase inhibitors” (Array BioPharma Inc., priority 2012, dated 2017).

Experiments:
[1] = tested on: off-target kinases (panel of about 230 other kinases); experiment: KinaseProfiler full kinase panel, overall selectivity; assay type: biochemical; settings: 10 μM concentration
Description: A representative compound of the invention (Example 20) was tested for off-target kinase activity at a concentration of 10 μM by Millipore, Inc. in their KinaseProfiler™ service against all the kinases available in their full kinase panel. The compound was run in duplicate at a concentration of ATP near the Km for each individual kinase according to Millipore's specifications. The results are shown in Table B. Data are reported as percent of control (POC) and are the average of the two replicates.
Such a drug profile would represent a safer approach to treating pain, inflammation, cancer and certain skin diseases than has been previously reported.

MELK = biological target: T1, MELK (Homo sapiens, UniProt Q14680); experiment: KinaseProfiler off-target kinase profiling; assay type: biochemical; settings: 10 μM, ATP near Km
T1 construct: purchased Millipore, Inc. (KinaseProfiler service)
Method in brief: (§1)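 Off-target profiling uses one compound concentration (10 μM) and an ATP level near the kinase-specific Km; duplicates are averaged and given as POC.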

CAMK2b = biological target: T2, CAMK2b (Homo sapiens, UniProt Q13554); experiment: KinaseProfiler off-target kinase profiling; assay type: biochemical; settings: 10 μM, ATP near Km
T2 construct: purchased Millipore, Inc. (KinaseProfiler service)
Method in brief: as §1

CDK9/cyclinT1 = biological target: T3, CDK9/cyclinT1 (Homo sapiens, UniProt P50750); experiment: KinaseProfiler off-target kinase profiling; assay type: biochemical; settings: 10 μM, ATP near Km
T3 construct: purchased Millipore, Inc. (KinaseProfiler service)
Method in brief: as §1

ULK3 = biological target: T4, ULK3 (Homo sapiens, UniProt Q6PHR2); experiment: KinaseProfiler off-target kinase profiling; assay type: biochemical; settings: 10 μM, ATP near Km
T4 construct: purchased Millipore, Inc. (KinaseProfiler service)
Method in brief: as §1

CDK5/p25 = biological target: T5, CDK5/p25 (Homo sapiens, UniProt Q00535); experiment: KinaseProfiler off-target kinase profiling; assay type: biochemical; settings: 10 μM, ATP near Km
T5 construct: purchased Millipore, Inc. (KinaseProfiler service)
Method in brief: as §1

FGFR1 = biological target: T6, FGFR1 (Homo sapiens, UniProt P11362); experiment: KinaseProfiler off-target kinase profiling; assay type: biochemical; settings: 10 μM, ATP near Km
T6 construct: purchased Millipore, Inc. (KinaseProfiler service)
Method in brief: as §1

eEF-2K = biological target: T7, eEF-2K (Homo sapiens, UniProt O00418); experiment: KinaseProfiler off-target kinase profiling; assay type: biochemical; settings: 10 μM, ATP near Km
T7 construct: purchased Millipore, Inc. (KinaseProfiler service)
Method in brief: as §1

PAK2 = biological target: T8, PAK2 (Homo sapiens, UniProt Q13177); experiment: KinaseProfiler off-target kinase profiling; assay type: biochemical; settings: 10 μM, ATP near Km
T8 construct: purchased Millipore, Inc. (KinaseProfiler service)
Method in brief: as §1

ZAP-70 = biological target: T9, ZAP-70 (Homo sapiens, UniProt P43403); experiment: KinaseProfiler off-target kinase profiling; assay type: biochemical; settings: 10 μM, ATP near Km
T9 construct: purchased Millipore, Inc. (KinaseProfiler service)
Method in brief: as §1

TrkB = biological target: T10, TrkB (Homo sapiens, UniProt Q16620); experiment: KinaseProfiler off-target kinase profiling; assay type: biochemical; settings: 10 μM, ATP near Km
T10 construct: purchased Millipore, Inc. (KinaseProfiler service)
Method in brief: as §1

CK1_y = experiment: KinaseProfiler off-target kinase profiling; assay type: biochemical; settings: 10 μM, ATP near Km
Method in brief: as §1

PhKgamma2 = biological target: T11, PhKgamma2 (Homo sapiens, UniProt P15735); experiment: KinaseProfiler off-target kinase profiling; assay type: biochemical; settings: 10 μM, ATP near Km
T11 construct: purchased Millipore, Inc. (KinaseProfiler service)
Method in brief: as §1

AKT2 = biological target: T12, AKT2 (Homo sapiens, UniProt P31751); experiment: KinaseProfiler off-target kinase profiling; assay type: biochemical; settings: 10 μM, ATP near Km
T12 construct: purchased Millipore, Inc. (KinaseProfiler service)
Method in brief: as §1

GSK3beta = biological target: T13, GSK3beta (Homo sapiens, UniProt P49841); experiment: KinaseProfiler off-target kinase profiling; assay type: biochemical; settings: 10 μM, ATP near Km
T13 construct: purchased Millipore, Inc. (KinaseProfiler service)
Method in brief: as §1

NEK11 = biological target: T14, NEK11 (Homo sapiens, UniProt Q8NG66); experiment: KinaseProfiler off-target kinase profiling; assay type: biochemical; settings: 10 μM, ATP near Km
T14 construct: purchased Millipore, Inc. (KinaseProfiler service)
Method in brief: as §1

EphB4 = biological target: T15, EphB4 (Homo sapiens, UniProt P54760); experiment: KinaseProfiler off-target kinase profiling; assay type: biochemical; settings: 10 μM, ATP near Km
T15 construct: purchased Millipore, Inc. (KinaseProfiler service)
Method in brief: as §1

TAO1 = biological target: T16, TAO1 (Homo sapiens, UniProt Q7L7X3); experiment: KinaseProfiler off-target kinase profiling; assay type: biochemical; settings: 10 μM, ATP near Km
T16 construct: purchased Millipore, Inc. (KinaseProfiler service)
Method in brief: as §1

DAPK1 = biological target: T17, DAPK1 (Homo sapiens, UniProt P53355); experiment: KinaseProfiler off-target kinase profiling; assay type: biochemical; settings: 10 μM, ATP near Km
T17 construct: purchased Millipore, Inc. (KinaseProfiler service)
Method in brief: as §1

EphA1 = biological target: T18, EphA1 (Homo sapiens, UniProt P21709); experiment: KinaseProfiler off-target kinase profiling; assay type: biochemical; settings: 10 μM, ATP near Km
T18 construct: purchased Millipore, Inc. (KinaseProfiler service)
Method in brief: as §1

p38alpha = biological target: T19, p38alpha (Homo sapiens, UniProt Q16539); experiment: KinaseProfiler off-target kinase profiling; assay type: biochemical; settings: 10 μM, ATP near Km
T19 construct: purchased Millipore, Inc. (KinaseProfiler service)
Method in brief: as §1

BTK = biological target: T20, BTK (Homo sapiens, UniProt Q06187); experiment: KinaseProfiler off-target kinase profiling; assay type: biochemical; settings: 10 μM, ATP near Km
T20 construct: purchased Millipore, Inc. (KinaseProfiler service)
Method in brief: as §1

PrKX = biological target: T21, PrKX (Homo sapiens, UniProt P51817); experiment: KinaseProfiler off-target kinase profiling; assay type: biochemical; settings: 10 μM, ATP near Km
T21 construct: purchased Millipore (KinaseProfiler service)
Method in brief: as §1

MST2 = biological target: T22, MST2 (Homo sapiens, UniProt Q13188); experiment: KinaseProfiler off-target kinase profiling; assay type: biochemical; settings: 10 μM, ATP near Km
T22 construct: purchased Millipore, Inc. (KinaseProfiler service)
Method in brief: as §1

ERK1 = biological target: T23, ERK1 (Homo sapiens, UniProt P27361); experiment: KinaseProfiler off-target kinase profiling; assay type: biochemical; settings: 10 μM, ATP near Km
T23 construct: purchased Millipore, Inc. (KinaseProfiler service)
Method in brief: as §1

CLK2 = biological target: T24, CLK2 (Homo sapiens, UniProt P49760); experiment: KinaseProfiler off-target kinase profiling; assay type: biochemical; settings: 10 μM, ATP near Km
T24 construct: purchased Millipore, Inc. (KinaseProfiler service)
Method in brief: as §1

[2] = biological target: T25, His-tagged recombinant human TrkA (Homo sapiens, UniProt P04629); experiment: TrkA LanthaScreen Eu Kinase Binding Assay; settings: averaged IC50 values; read-out: TrkA enzyme IC50
T25 construct: 6HIS tagged cytoplasmic domain from Invitrogen, Catalog No. PV3144; purchased Invitrogen PV3144
Description: TrkA binding activity was determined in a TrkA LanthaScreen™ Eu Kinase Binding Assay. 5 nM His-tagged recombinant human TrkA (6HIS tagged cytoplasmic domain from Invitrogen, Catalog No. PV3144) was incubated with 4 nM Alexa-Fluor® Tracer 236 (Invitrogen Cat. No. PV5592), 2 nM biotinylated anti-His (Invitrogen Cat. No. PV6090), and 2 nM europium-labeled Streptavidin (Invitrogen Cat. No. PV5899), in buffer (25 mM MOPS, pH 7.5, 5 mM MgCl2, 0.005% Triton X-100). Three fold serial dilutions of compounds of the invention in DMSO were added to a final percentage of 2% DMSO. After 60-minute incubation at 22° C., the reaction was measured using the EnVision mutlimode plate reader (PerkinElmer) via TR-FRET dual wavelength detection at […]. The percent of control was calculated using a ratiometric emission factor. The IC50 values were determined by fitting a four parameter model to the percent of control data.
Table A provides averaged IC50 values for compounds of the invention when tested in the assay of Example A, where A represents an averaged IC50 value <100 nM; and B represents an averaged IC50 value from 100 to 1,000 nM.

T17 sequence (P53355 whole entry): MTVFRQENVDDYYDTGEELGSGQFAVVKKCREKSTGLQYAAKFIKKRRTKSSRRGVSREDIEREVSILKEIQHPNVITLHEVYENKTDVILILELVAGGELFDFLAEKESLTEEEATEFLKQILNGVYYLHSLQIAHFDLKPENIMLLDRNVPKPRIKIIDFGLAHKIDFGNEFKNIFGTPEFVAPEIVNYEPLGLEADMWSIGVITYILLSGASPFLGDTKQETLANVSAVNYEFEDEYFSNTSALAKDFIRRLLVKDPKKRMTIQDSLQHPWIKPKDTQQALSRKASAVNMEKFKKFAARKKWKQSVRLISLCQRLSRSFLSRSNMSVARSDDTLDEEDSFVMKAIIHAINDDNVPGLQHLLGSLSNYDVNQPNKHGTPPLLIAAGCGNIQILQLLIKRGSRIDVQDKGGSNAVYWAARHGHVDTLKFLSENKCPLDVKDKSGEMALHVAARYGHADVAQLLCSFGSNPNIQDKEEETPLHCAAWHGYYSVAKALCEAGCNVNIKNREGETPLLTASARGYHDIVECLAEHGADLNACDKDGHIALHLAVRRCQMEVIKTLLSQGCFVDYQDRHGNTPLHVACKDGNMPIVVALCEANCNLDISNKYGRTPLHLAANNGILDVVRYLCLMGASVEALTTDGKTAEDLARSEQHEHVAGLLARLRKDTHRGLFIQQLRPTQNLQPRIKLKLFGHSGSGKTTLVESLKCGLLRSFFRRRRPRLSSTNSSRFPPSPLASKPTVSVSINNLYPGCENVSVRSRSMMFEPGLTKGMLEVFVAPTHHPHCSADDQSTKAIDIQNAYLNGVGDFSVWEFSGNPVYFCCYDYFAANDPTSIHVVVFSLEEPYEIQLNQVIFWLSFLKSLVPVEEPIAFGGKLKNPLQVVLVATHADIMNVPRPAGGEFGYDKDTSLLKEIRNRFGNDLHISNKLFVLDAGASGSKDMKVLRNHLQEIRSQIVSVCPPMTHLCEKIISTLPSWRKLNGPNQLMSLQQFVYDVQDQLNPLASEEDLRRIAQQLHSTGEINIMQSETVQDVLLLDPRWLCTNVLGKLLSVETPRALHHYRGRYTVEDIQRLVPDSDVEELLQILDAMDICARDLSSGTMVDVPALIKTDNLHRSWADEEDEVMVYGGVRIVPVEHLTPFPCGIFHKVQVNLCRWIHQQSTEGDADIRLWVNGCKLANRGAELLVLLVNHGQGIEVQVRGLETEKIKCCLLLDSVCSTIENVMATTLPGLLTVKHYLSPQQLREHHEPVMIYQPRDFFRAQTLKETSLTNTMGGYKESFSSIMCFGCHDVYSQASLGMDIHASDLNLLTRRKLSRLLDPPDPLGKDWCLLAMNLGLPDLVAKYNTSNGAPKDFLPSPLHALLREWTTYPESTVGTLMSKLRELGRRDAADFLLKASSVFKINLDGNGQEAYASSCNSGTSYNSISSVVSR
T6 sequence (P11362 22-822): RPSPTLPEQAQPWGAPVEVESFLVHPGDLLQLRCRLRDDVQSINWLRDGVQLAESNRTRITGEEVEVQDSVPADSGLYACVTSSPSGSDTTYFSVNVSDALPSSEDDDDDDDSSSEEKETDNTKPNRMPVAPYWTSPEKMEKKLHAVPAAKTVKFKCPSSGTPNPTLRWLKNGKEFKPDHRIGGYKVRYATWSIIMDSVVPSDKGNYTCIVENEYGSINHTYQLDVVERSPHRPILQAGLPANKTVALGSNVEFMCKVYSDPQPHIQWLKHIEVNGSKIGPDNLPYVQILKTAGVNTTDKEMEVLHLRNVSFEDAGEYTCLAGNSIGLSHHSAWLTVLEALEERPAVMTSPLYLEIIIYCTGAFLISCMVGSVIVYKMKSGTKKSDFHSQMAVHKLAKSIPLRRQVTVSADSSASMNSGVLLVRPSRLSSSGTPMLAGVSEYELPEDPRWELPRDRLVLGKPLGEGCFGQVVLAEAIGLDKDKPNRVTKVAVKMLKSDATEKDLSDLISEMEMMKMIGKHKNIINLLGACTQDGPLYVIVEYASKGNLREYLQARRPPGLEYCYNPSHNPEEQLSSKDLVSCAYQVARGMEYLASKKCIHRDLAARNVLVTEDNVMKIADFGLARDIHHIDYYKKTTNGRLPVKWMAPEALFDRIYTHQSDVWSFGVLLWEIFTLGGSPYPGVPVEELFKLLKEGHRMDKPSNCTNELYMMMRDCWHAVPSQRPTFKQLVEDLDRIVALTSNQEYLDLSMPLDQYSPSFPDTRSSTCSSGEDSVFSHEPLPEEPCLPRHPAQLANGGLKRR
T5 sequence (Q00535 whole entry): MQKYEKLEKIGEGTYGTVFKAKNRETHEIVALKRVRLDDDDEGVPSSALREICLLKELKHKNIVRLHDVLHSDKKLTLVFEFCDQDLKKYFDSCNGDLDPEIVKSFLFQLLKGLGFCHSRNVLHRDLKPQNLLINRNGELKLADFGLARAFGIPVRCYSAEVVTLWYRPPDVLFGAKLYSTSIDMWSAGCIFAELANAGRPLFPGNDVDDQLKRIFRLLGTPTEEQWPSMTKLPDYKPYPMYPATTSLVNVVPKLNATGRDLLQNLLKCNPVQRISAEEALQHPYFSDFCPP
T5 sequence (Q15078 99-307 partner limits assumed): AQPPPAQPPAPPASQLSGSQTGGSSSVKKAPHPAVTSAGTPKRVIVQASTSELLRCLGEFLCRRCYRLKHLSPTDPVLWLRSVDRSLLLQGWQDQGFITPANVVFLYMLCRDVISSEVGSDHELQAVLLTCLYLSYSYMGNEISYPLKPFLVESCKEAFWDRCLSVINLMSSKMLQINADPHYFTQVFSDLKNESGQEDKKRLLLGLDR
T10 sequence (Q16620 32-822): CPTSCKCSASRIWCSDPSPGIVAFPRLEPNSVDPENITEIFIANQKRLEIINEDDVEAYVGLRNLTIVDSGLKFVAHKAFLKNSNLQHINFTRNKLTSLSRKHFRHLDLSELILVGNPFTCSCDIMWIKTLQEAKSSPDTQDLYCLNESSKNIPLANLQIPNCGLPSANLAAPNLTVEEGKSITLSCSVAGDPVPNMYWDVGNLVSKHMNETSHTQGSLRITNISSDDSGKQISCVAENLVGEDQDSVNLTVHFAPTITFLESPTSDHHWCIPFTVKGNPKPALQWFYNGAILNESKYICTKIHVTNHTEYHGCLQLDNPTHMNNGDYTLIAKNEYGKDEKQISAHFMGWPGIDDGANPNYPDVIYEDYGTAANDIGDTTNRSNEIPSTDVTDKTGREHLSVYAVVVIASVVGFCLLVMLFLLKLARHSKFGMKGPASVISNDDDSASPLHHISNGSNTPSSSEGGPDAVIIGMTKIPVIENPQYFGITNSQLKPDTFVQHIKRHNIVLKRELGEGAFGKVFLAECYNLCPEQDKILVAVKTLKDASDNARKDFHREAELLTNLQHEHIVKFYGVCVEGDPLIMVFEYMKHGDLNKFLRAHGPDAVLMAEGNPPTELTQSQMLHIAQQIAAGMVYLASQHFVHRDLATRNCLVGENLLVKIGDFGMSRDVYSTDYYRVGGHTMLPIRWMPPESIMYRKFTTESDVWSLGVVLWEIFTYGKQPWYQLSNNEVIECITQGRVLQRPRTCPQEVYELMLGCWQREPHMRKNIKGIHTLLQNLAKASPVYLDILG
T4 sequence (Q6PHR2 whole entry): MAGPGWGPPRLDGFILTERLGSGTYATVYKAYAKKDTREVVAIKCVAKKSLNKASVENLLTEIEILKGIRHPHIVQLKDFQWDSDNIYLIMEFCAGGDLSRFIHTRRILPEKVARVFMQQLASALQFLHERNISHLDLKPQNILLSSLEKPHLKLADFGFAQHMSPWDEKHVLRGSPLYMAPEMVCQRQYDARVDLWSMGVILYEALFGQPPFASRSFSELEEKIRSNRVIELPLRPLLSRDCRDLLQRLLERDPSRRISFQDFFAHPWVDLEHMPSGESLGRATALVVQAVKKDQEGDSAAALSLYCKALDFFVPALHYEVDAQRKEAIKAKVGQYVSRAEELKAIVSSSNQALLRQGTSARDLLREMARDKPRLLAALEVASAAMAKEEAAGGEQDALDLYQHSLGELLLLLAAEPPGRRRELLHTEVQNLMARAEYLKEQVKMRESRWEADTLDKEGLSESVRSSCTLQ
T15 sequence (P54760 16-987): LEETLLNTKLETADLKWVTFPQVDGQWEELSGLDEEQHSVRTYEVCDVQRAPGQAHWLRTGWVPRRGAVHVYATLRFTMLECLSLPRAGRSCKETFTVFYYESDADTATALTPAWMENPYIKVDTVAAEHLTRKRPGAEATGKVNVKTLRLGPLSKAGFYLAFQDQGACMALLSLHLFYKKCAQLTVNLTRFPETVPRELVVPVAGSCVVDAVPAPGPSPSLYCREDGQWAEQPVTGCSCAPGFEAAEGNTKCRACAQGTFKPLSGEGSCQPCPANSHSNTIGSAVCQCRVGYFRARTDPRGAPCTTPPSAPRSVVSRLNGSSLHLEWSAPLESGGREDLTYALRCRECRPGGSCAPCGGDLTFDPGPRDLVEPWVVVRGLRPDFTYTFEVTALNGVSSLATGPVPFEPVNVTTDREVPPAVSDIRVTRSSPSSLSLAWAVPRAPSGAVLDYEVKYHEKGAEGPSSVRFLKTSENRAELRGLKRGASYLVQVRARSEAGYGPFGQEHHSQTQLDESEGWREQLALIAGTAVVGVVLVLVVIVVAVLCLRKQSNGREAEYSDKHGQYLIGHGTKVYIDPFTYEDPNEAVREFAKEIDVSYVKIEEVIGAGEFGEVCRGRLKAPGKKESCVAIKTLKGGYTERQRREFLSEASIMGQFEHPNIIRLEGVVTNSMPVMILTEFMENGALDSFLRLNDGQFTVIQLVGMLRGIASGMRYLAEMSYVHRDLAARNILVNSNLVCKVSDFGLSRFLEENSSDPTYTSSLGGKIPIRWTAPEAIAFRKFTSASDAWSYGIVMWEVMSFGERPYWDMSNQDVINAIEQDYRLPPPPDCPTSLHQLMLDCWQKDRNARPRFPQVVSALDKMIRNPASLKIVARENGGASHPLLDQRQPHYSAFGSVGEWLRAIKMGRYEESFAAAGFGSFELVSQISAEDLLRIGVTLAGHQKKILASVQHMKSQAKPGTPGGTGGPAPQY

COCCN1C[C@@H](NC(=O)Nc2c(-c3ccccc3)nc3c(C)nccn23)[C@H](c2ccc(F)c(F)c2)C1 [Example 20, 1-((3S,4R)-4-(3,4-difluorophenyl)-1-(2-methoxyethyl)pyrrolidin-3-yl)-3-(8-methyl-2-phenylimidazo[1,2-a]pyrazin-3-yl)urea]
selectivity for TrkA (and TrkB) versus other kinases in the panel [1]: largely inactive against off-target kinases
Avg. POC (MELK): 97.5 POC
Avg. POC (CAMK2b): 102 POC
Avg. POC (CDK9/cyclinT1): 109.5 POC
Avg. POC (ULK3): 108 POC
Avg. POC (CDK5/p25): 111 POC
Avg. POC (FGFR1): 102 POC
Avg. POC (eEF-2K): 108 POC
Avg. POC (PAK2): 100.5 POC
Avg. POC (ZAP-70): 102.5 POC
Avg. POC (TrkB): 0.5 POC
Avg. POC (CK1_y): 104 POC
Avg. POC (PhKgamma2): 98.5 POC
Avg. POC (AKT2): 131 POC
Avg. POC (GSK3beta): 129 POC
Avg. POC (NEK11): 109.5 POC
Avg. POC (EphB4): 102 POC
Avg. POC (TAO1): 106 POC
Avg. POC (DAPK1): 103 POC
Avg. POC (EphA1): 99 POC
Avg. POC (p38alpha): 97.5 POC
Avg. POC (BTK): 112.5 POC
Avg. POC (PrKX): 120.5 POC
Avg. POC (MST2): 107.5 POC
Avg. POC (ERK1): 115 POC
Avg. POC (CLK2): 106.5 POC
IC50 [2]: < 100 nM
